Data published in ChEMBL document CHEMBL6153052, “Development of molecular Trojan horses targeting New Delhi metallo-β-lactamase-1 for the restoration of meropenem susceptibility in drug-resistant bacteria” (Eur J Med Chem, 2025).
Active and inactive are the calls of the source. No cut-off for these calls is given here.

Columns and labels:
[1] = target: T1, Metallo-beta-lactamase type 2 (Bacteria, UniProt C7C422); experiment: Inhibition of NDM-1 (unknown origin)
[2] = target: Metallo-beta-lactamase type 2 (Bacteria) (UniProt C7C422); experiment: Inhibition of NDM-1 (unknown origin) using nitrocefin as substrate assessed as residual activity at 64 ug/ml preincubated for 15 mins followed by substrate addition by absorbance based assay relative to control; settings: dose 64.0 µg/ml
Sequence of Metallo-beta-lactamase type 2 (Bacteria) (C7C422 whole entry): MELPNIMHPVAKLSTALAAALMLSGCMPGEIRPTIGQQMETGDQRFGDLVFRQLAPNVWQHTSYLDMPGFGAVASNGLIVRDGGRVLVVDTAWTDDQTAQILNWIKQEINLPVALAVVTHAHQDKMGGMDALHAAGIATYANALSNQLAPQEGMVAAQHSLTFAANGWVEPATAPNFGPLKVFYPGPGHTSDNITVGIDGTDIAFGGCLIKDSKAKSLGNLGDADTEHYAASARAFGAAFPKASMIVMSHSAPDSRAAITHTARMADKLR

[3] = target: T1, Metallo-beta-lactamase type 2; experiment: Inhibition of NDM-1 (unknown origin) using nitrocefin as substrate assessed as residual activity preincubated for 15 mins followed by substrate addition by absorbance based assay
Klebsiella pneumoniae = experiment: Antibacterial activity against Klebsiella pneumoniae K-N-1 assessed as minimum bacteriostatic concentration incubated for 20 hrs; assay type: functional
Acinetobacter baumannii = experiment: Antibacterial activity against Acinetobacter baumannii aba assessed as minimum bacteriostatic concentration incubated for 20 hrs; assay type: functional
Escherichia coli [4] = experiment: Antibacterial activity against Escherichia coli ZJ487 infected in BALB/c mouse assessed as reduction in bacterial count in liver at 10 mg/kg, sc administered at every 12 hr interval measured after 42 hrs; assay type: functional, organism-based
Escherichia coli [5] = experiment: Antibacterial activity against Escherichia coli ZJ487 infected in BALB/c mouse assessed as reduction in bacterial count in spleen at 10 mg/kg, sc administered at every 12 hr interval measured after 42 hrs; assay type: functional, organism-based

T1 sequence (C7C422 whole entry): as above

Compound	Activity [2] [%]	other results
O=c1c2ccccc2[se]n1-c1ncccc1-c1ccc(F)cc1		IC50 [1]: 11300 nM
N#Cc1cc(Cl)cc(CN[C@@H]2C(=O)N3C(C(=O)O)=C(C[Se]c4ccccc4C(=O)Nc4ccccc4)CS[C@H]23)c1	42.3	
O=C(O)C1=C(C[Se]c2ccccc2C(=O)Nc2ccccc2)CS[C@@H]2[C@H](NS(=O)(=O)c3ccccc3)C(=O)N12	48.4	
CC(=O)N[C@@H]1C(=O)N2C(C(=O)O)=C(C[Se]c3ccccc3C(=O)Nc3ccccc3)CS[C@H]12	88.2	
O=C(O)C1=C(C[Se]c2ccccc2C(=O)Nc2ccccc2)CS[C@@H]2[C@H](NS(=O)(=O)Cc3ccccc3)C(=O)N12	63.8	
O=C(O)C1=C(C[Se]c2ccccc2C(=O)Nc2ccccc2)CS[C@@H]2[C@H](NC(=O)C3CC3)C(=O)N12	47.3	IC50 [3]: 150 µM
O=c1c2ccccc2[se]n1-c1ccccc1 [EBSELEN]	8.05	IC50 [3]: 16 µM
CCN(CC)[C@@H]1C(=O)N2C(C(=O)O)=C(C[Se]c3ccccc3C(=O)Nc3ccccc3)CS[C@H]12	70.2	
O=C(O)C1=C(C[Se]c2ccccc2C(=O)Nc2ccccc2)CS[C@@H]2[C@H](NCc3cc(C(F)(F)F)cc(C(F)(F)F)c3)C(=O)N12	61.6	
C[C@@H](O)[C@H]1C(=O)N2C(C(=O)O)=C(S[C@@H]3CN[C@H](C(=O)N(C)C)C3)[C@H](C)[C@H]12 [MEROPENEM]		MIC (Klebsiella pneumoniae): > 512 µg/mL; MIC (Acinetobacter baumannii): > 512 µg/mL; Activity (Escherichia coli [4]): inactive; Activity (Escherichia coli [5]): inactive
O=C(Cc1ccccc1)N[C@@H]1C(=O)N2C(C(=O)O)=C(C[Se]c3ccccc3C(=O)Nc3ccccc3)CS[C@H]12	23.9	IC50 [3]: 90.3 µM
O=C(O)C1=C(C[Se]c2ccccc2C(=O)Nc2ccccc2)CS[C@@H]2[C@H](NCC3CC3)C(=O)N12	78.2	
CCOC(=O)[C@]1(CS)C[C@H](C(=O)O)C(C)(C)S1		IC50 [1]: 40 nM
Cc1cc(C)cc(CN[C@@H]2C(=O)N3C(C(=O)O)=C(C[Se]c4ccccc4C(=O)Nc4ccccc4)CS[C@H]23)c1	69.3	
CC(C)(C)OC(=O)NCCCCCCn1[se]c2ccccc2c1=O		IC50 [1]: 1260 nM
O=C(O)C1=C(C[Se]c2ccccc2C(=O)Nc2ccccc2)CS[C@@H]2[C@H](NCc3cc(F)cc(F)c3)C(=O)N12	41.1	
O=C(O)C1=C(C[Se]c2ccccc2C(=O)Nc2ccccc2)CS[C@@H]2[C@H](NCc3ccc(Cl)cc3)C(=O)N12	54	
O=C(O)C1=C(C[Se]c2ccccc2C(=O)Nc2ccccc2)CS[C@@H]2[C@H](NC(=O)c3cccs3)C(=O)N12	49.5	
